From US9988400B2 (Genentech, Inc., priority 2013, dated 2018)

Target: T1, HEK cells stably transfected with tetracycline inducible hNR1 and hNR2A (Homo sapiens, UniProt Q05586+Q12879)
T1 construct: expressed in transfected cells; host or cells: HEK cells, stably transfected, tetracycline/doxycycline inducible
Test: Assay 1: Cell-Based Assay, cytosolic calcium response to positive allosteric modulators (with 30 μM glycine and 300 nM L-glutamate, EC30)
Details: Table 2; for Max %: responses scaled relative to 100 μM L-glutamate maximal response (100%) and 0 μM L-glutamate (0%); for EC50: cytosolic calcium response, with 30 μM glycine and 300 nM L-glutamate (EC30), — = no plateau was reached
Method in brief: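 Cells induced 24 h with 7.5 μg mL^−1 doxycycline plus 500 μM (+)-ketamine, loaded 60 min at 37 °C with calcium dye in Mg-free HBSS (1.8 mM Ca, probenecid, 10 μM (+)-ketamine, pH 7.15). Peak RFU over 5 min after compound addition, scaled to 100 μM L-glutamate (100%) and 0 μM (0%); four-parameter Hill fit for EC50, max % if no plateau.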

T1 sequence (Q12879 23-1464, other chains not shown): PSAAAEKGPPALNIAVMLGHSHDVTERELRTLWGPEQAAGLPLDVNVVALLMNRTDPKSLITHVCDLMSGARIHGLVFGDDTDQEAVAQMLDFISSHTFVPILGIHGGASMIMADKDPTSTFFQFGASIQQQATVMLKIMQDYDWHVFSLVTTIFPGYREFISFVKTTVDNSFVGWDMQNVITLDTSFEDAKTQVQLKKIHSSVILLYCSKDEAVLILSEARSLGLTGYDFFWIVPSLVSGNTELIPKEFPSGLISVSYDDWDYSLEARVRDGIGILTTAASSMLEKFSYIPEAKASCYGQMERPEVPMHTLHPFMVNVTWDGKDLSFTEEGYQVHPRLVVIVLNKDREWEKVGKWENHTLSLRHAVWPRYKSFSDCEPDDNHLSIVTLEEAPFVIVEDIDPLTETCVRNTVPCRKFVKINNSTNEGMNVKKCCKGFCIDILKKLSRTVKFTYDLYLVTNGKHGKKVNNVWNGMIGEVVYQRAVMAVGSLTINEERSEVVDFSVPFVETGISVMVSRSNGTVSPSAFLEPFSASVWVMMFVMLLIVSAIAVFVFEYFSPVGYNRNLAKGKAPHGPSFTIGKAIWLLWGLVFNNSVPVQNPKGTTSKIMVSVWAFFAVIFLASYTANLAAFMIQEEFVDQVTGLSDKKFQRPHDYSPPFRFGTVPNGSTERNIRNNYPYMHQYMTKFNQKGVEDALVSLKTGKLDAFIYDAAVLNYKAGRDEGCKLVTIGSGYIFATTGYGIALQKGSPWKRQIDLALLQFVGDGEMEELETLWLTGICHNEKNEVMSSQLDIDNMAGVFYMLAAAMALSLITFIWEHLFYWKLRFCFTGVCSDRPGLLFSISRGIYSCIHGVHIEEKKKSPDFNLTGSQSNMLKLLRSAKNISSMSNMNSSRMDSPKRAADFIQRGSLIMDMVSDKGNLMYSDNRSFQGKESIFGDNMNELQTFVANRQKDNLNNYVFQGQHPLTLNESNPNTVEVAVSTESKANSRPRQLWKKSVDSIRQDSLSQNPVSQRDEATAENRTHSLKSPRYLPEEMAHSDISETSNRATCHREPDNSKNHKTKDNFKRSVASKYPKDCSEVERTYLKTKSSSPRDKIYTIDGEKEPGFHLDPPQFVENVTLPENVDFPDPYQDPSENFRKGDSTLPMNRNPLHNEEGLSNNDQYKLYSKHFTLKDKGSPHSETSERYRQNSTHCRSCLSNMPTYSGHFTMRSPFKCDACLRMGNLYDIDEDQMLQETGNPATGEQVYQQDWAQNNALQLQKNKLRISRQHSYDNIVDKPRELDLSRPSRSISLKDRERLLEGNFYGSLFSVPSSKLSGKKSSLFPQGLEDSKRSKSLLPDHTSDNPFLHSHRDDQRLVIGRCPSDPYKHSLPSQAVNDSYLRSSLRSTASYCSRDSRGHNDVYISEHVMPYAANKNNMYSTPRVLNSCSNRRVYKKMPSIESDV

| Max % | EC50 | Structure (SMILES) |
| --- | --- | --- |
| 99.3% | – | CCNC(=O)c1c(C)sc2nc(Cc3cccc(C#N)c3)cc(=O)n12 [Example 21.8, 7-(3-cyanobenzyl)-N-ethyl-2-methyl-5-oxo-5H-thiazolo[3,2-a]pyrimidine-3-carboxamide] |
| 90.1% | – | CCNC(=O)c1c(C2CC2)sc2nc(Cc3cccc(C#N)c3F)cc(=O)n12 [Example 21.9, 7-(3-cyano-2-fluorobenzyl)-2-cyclopropyl-N-ethyl-5-oxo-5H-thiazolo[3,2-a]pyrimidine-3-carboxamide] |
| 70.3% | – | CCNC(=O)c1c(C)sc2nc(Cc3cc(F)cc(C#N)c3)cc(=O)n12 [Example 21.10, 7-(3-cyano-5-fluorobenzyl)-N-ethyl-2-methyl-5-oxo-5H-thiazolo[3,2-a]pyrimidine-3-carboxamide] |
| 47% | – | CCNC(=O)c1c(C)sc2nc(Cc3cccc(C#N)c3)cc(=O)n12 [Example 21.11, 7-(3-cyanobenzyl)-N-ethyl-2-methyl-5-oxo-5H-thiazolo[3,2-a]pyrimidine-3-carboxamide] |
| – | 6.7 µM | CCNC(=O)c1c(C)sc2nc(Cc3cccc(C(F)(F)F)c3F)cc(=O)n12 [Example 21.12, N-ethyl-7-(2-fluoro-3-(trifluoromethyl)benzyl)-2-methyl-5-oxo-5H-thiazolo[3,2-a]pyrimidine-3-carboxamide] |
| 131% | 12.3 µM | CCNC(=O)c1c(C)sc2nc(Cc3cccc(C#N)c3F)cc(=O)n12 [Example 21.13, 7-(3-cyano-2-fluorobenzyl)-N-ethyl-2-methyl-5-oxo-5H-thiazolo[3,2-a]pyrimidine-3-carboxamide] |
| 112% | 11 µM | CNC(=O)c1c(C)sc2nc(Cc3cccc(Cl)c3F)cc(=O)n12 [Example 21.14, 7-[(3-chloro-2-fluoro-phenyl)methyl]-N,2-dimethyl-5-oxo-thiazolo[3,2-a]pyrimidine-3-carboxamide] |
| 112% | – | CNC(=O)c1c(C)sc2nc(Cc3cccc(C(F)(F)F)c3)cc(=O)n12 [Example 21.15, N,2-dimethyl-5-oxo-7-[[3-(trifluoromethyl)phenyl]methyl]thiazolo[3,2-a]pyrimidine-3-carboxamide] |
| 107% | 14.3 µM | CNC(=O)c1c(C)sc2nc(Cc3cccc(Cl)c3)cc(=O)n12 [Example 21.16, 7-[(3-chlorophenyl)methyl]-N,2-dimethyl-5-oxo-thiazolo[3,2-a]pyrimidine-3-carboxamide] |
| 107% | 23.7 µM | CNC(=O)c1c(C)sc2nc(Cc3cc(C(F)(F)F)ccc3C3CC3)cc(=O)n12 [Example 21.17, 7-[[2-cyclopropyl-5-(trifluoromethyl)phenyl]methyl]-N,2-dimethyl-5-oxo-thiazolo[3,2-a]pyrimidine-3-carboxamide] |
| 58.5% | – | CCNC(=O)c1c(C)sc2nc(Cc3cccc(C(F)(F)F)n3)cc(=O)n12 [Example 21.18, N-ethyl-2-methyl-5-oxo-7-((6-(trifluoromethyl)pyridine-2-yl)methyl)-5H-thiazolo[3,2-a]pyrimidine-3-carboxamide] |
| 145% | 7.4 µM | CCNC(=O)c1c(C)sc2nc(Cc3cc(F)c(F)cc3CC)cc(=O)n12 [Example 21.19, N-ethyl-7-(2-ethyl-4,5-difluorobenzyl)-2-methyl-5-oxo-5H-thiazolo[3,2-a]pyrimidine-3-carboxamide] |
| 114% | 5.2 µM | CCNC(=O)c1c(C)sc2nc(Cc3cccc(C(F)F)c3F)cc(=O)n12 [Example 21.20, 7-[[3-(difluoromethyl)-2-fluoro-phenyl]methyl]-N-ethyl-2-methyl-5-oxo-thiazolo[3,2-a]pyrimidine-3-carboxamide] |
| 134% | 33.6 µM | CCNC(=O)c1c(C)sc2nc(Cc3cc(F)ccc3CC)cc(=O)n12 [Example 21.21] |
| 60.1% | – | CCNC(=O)c1c(C)sc2nc(Cc3cccc(C#N)n3)cc(=O)n12 [Example 21.22, 7-((6-cyanopyridin-2-yl)methyl)-N-ethyl-2-methyl-5-oxo-5H-thiazolo[3,2-a]pyrimidine-3-carboxamide] |
| 107% | 6.5 µM | CNC(=O)c1c(C)sc2nc(Cc3cccc(C(F)F)c3F)cc(=O)n12 [Example 21.23, 7-[[3-(difluoromethyl)-2-fluoro-phenyl]methyl]-N,2-dimethyl-5-oxo-thiazolo[3,2-a]pyrimidine-3-carboxamide] |
| 102% | 34.5 µM | CNC(=O)c1c(C)sc2nc(Cc3cccc(CO)c3F)cc(=O)n12 [Example 21.24, 7-[[2-fluoro-3-(hydroxymethyl)phenyl]methyl]-N,2-dimethyl-5-oxo-thiazolo[3,2-a]pyrimidine-3-carboxamide] |
| 105% | 3.9 µM | CCNC(=O)c1c(C)sc2nc(Cc3cccc(C4CC4)c3F)cc(=O)n12 [Example 21.25, 7-(3-cyclopropyl-2-fluorobenzyl)-N-ethyl-2-methyl-5-oxo-5H-thiazolo[3,2-a]pyrimidine-3-carboxamide] |

| Max % | EC50 | Structure (SMILES) |
| --- | --- | --- |
| 76.5% | – | CCNC(=O)c1csc2nc(Cc3cccc(C#N)c3F)c(F)c(=O)n12 [Example 21.26, 7-(3-cyano-2-fluorobenzyl)-N-ethyl-6-fluoro-5-oxo-5H-thiazolo[3,2-a]pyrimidine-3-carboxamide] |
| 122% | 16 µM | CNC(=O)c1c(C)sc2nc(Cc3cccc(C#N)c3F)c(F)c(=O)n12 [Example 21.27] |
| 126% | 11.4 µM | CCNC(=O)c1c(C)sc2nc(Cc3cccc(C#N)c3F)c(F)c(=O)n12 [Example 21.28, 7-(3-cyano-2-fluorobenzyl)-N-ethyl-6-fluoro-2-methyl-5-oxo-5H-thiazolo[3,2-a]pyrimidine-3-carboxamide] |
| 98.2% | 4.7 µM | CNC(=O)c1c(C)sc2nc(Cc3cccc(C(F)(F)F)c3F)c(F)c(=O)n12 [Example 21.29, 6-fluoro-7-(2-fluoro-3-(trifluoromethyl)benzyl)-N,2-dimethyl-5-oxo-5H-thiazolo[3,2-a]pyrimidine-3-carboxamide] |
| 100% | – | CCNC(=O)c1c(C)sc2nc(Cc3cc(C#N)ccc3C)cc(=O)n12 [Example 21.30, 7-(5-cyano-2-methylbenzyl)-N-ethyl-2-methyl-5-oxo-5H-thiazolo[3,2-a]pyrimidine-3-carboxamide] |
| 88.8% | – | CCNC(=O)c1c(C)sc2nc(Cc3cc(C#N)ccc3F)cc(=O)n12 [Example 21.31, 7-(5-cyano-2-fluorobenzyl)-N-ethyl-2-methyl-5-oxo-5H-thiazolo[3,2-a]pyrimidine-3-carboxamide] |
| 84.3% | – | CCNC(=O)c1c(C)sc2nc(Cc3cc(F)ccc3Cl)cc(=O)n12 [Example 21.32, 7-(2-chloro-5-fluorobenzyl)-N-ethyl-2-methyl-5-oxo-5H-thiazolo[3,2-a]pyrimidine-3-carboxamide] |
| 79.9% | – | CCNC(=O)c1c(C)sc2nc(Cc3cc(F)ccc3C(F)(F)F)cc(=O)n12 [Example 21.34, N-ethyl-7-(5-fluoro-2-(trifluoromethyl)benzyl)-2-methyl-5-oxo-5H-thiazolo[3,2-a]pyrimidine-3-carboxamide] |
| 77.8% | – | CCNC(=O)c1c(C)sc2nc(Cc3cccc4ccccc34)cc(=O)n12 [Example 21.35, N-ethyl-2-methyl-7-(naphthalen-1-ylmethyl)-5-oxo-5H-thiazolo[3,2-a]pyrimidine-3-carboxamide] |
| 71.8% | – | CCNC(=O)c1c(C)sc2nc(Cc3cc(F)ccc3C)cc(=O)n12 [Example 21.36, N-ethyl-7-(5-fluoro-2-methylbenzyl)-2-methyl-5-oxo-5H-thiazolo[3,2-a]pyrimidine-3-carboxamide] |
| 68.4% | – | CCNC(=O)c1c(C)sc2nc(Cc3ccc(F)c(C#N)c3)cc(=O)n12 [Example 21.37, 7-(3-cyano-4-fluorobenzyl)-N-ethyl-2-methyl-5-oxo-5H-thiazolo[3,2-a]pyrimidine-3-carboxamide] |
| 66.5% | – | CCNC(=O)c1c(C)sc2nc(Cc3cccc4c3cnn4C)cc(=O)n12 [Example 21.38, N-ethyl-2-methyl-7-((1-methyl-1H-indazol-4-yl)methyl)-5-oxo-5H-thiazolo[3,2-a]pyrimidine-3-carboxamide] |
| 62.6% | – | CCNC(=O)c1c(C)sc2nc(Cc3cccc(NS(C)(=O)=O)c3)cc(=O)n12 [Example 21.39, N-ethyl-2-methyl-7-(3-(methylsulfonamido)benzyl)-5-oxo-5H-thiazolo[3,2-a]pyrimidine-3-carboxamide] |
| 61.6% | – | CCNC(=O)c1c(C)sc2nc(Cc3cc(C#N)ccc3C(F)(F)F)cc(=O)n12 [Example 21.40, 7-(5-cyano-2-(trifluoromethyl)benzyl)-N-ethyl-2-methyl-5-oxo-5H-thiazolo[3,2-a]pyrimidine-3-carboxamide] |
| 59.7% | – | CNC(=O)c1c(C)sc2nc(Cc3ccc(Cl)cc3C)cc(=O)n12 [Example 21.41, 7-(4-chloro-2-methylbenzyl)-N,2-dimethyl-5-oxo-5H-thiazolo[3,2-a]pyrimidine-3-carboxamide] |
| 54.5% | – | CCNC(=O)c1c(C)sc2nc(Cc3cc(F)ccc3F)cc(=O)n12 [Example 21.42, 7-(2,5-difluorobenzyl)-N-ethyl-2-methyl-5-oxo-5H-thiazolo[3,2-a]pyrimidine-3-carboxamide] |
| 53.5% | – | CCNC(=O)c1c(C2CC2)sc2nc(Cc3cccc(C#N)c3)cc(=O)n12 [Example 21.43, 7-(3-cyanobenzyl)-2-cyclopropyl-N-ethyl-5-oxo-5H-thiazolo[3,2-a]pyrimidine-3-carboxamide] |

| Structure (SMILES) | Max % | EC50 |
| --- | --- | --- |
| CCNC(=O)c1csc2nc(Cc3cccc(C#N)c3F)cc(=O)n12 [Example 21.33, 7-(3-cyano-2-fluorobenzyl)-N-ethyl-5-oxo-5H-thiazolo[3,2-a]pyrimidine-3-carboxamide] | 82.5% | – |
